Reference: ChEMBL document CHEMBL3804825, “Synthesis, structure-activity relationships, and biological evaluation of a series of benzamides as potential multireceptor antipsychotics” (Bioorg Med Chem Lett, 2016)
The source made the active and inactive calls. The rule behind the calls is not given here.

Experiments:
[1] = molecular target: T1, 5-hydroxytryptamine receptor 1A (Homo sapiens, UniProt P08908); test: Agonistic activity at human 5-HT1A receptor measured after 60 mins by Ultra Lance cAMP assay; type: functional
T1 sequence (P08908 whole entry): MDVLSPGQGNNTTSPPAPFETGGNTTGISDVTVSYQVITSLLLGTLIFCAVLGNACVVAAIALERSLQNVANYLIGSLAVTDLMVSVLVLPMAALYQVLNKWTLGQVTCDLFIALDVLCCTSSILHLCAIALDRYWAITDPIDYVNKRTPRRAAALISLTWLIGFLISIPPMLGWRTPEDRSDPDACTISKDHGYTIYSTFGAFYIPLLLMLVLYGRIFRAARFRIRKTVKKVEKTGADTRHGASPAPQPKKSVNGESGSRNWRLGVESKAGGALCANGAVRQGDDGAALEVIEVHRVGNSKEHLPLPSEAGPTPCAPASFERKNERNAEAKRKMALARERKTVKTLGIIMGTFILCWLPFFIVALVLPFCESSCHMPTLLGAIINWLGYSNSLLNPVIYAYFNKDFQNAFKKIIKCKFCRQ

[2] = molecular target: D(2) dopamine receptor (Homo sapiens, UniProt P14416); test: Antagonistic activity at human dopamine D2 receptor measured after 60 mins by Ultra Lance cAMP assay; type: functional
D(2) dopamine receptor, sequence (P14416 whole entry): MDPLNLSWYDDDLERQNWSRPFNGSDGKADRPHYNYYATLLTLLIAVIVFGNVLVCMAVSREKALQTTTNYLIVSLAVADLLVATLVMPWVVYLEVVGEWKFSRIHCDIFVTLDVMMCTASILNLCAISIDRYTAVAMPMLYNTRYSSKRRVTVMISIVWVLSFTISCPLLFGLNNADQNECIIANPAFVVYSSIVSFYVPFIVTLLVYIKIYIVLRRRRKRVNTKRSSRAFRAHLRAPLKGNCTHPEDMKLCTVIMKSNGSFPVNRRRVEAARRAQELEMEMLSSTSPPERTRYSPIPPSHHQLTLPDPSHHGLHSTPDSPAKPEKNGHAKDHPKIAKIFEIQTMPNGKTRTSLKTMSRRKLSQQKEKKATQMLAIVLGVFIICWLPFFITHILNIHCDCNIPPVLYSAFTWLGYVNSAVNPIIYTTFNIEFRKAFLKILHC

[3] = molecular target: 5-hydroxytryptamine receptor 2A (Homo sapiens, UniProt P28223); test: Antagonistic activity at human 5-HT2A receptor assessed as calcium flux after 10 mins by FLIPR assay; type: functional
5-hydroxytryptamine receptor 2A, sequence (P28223 whole entry): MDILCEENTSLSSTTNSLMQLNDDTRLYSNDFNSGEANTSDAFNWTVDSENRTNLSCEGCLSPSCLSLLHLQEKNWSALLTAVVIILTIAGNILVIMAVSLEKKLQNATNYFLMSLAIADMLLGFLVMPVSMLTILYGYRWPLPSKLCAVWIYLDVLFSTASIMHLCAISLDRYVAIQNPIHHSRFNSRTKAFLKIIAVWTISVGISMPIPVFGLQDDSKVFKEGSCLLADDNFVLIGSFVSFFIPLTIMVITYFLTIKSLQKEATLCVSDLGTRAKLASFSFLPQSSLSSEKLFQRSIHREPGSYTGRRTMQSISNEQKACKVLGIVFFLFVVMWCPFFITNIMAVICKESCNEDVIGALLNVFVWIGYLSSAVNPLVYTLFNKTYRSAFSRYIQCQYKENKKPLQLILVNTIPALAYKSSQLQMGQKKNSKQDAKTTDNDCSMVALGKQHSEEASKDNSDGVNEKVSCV

[4] = system: Mus musculus; test: Toxicity in mouse assessed as induction of sedation at 1 mg/kg, ip administered 45 mins prior testing measured after 60 mins; type: organism-based; conditions: in vivo, 1 h
[5] = system: Mus musculus; test: Antipsychotic activity in mouse assessed as inhibition of PCP-induced hyperactivity at 10 mg/kg, ip administered 45 mins prior testing measured after 60 mins; type: functional, organism-based
[6] = system: Mus musculus; test: Antipsychotic activity in ig dosed mouse assessed as inhibition of PCP-induced hyperactivity; type: functional; conditions: for ED50: po
[7] = system: Mus musculus; test: Toxicity in mouse assessed as induction of sedation at 10 mg/kg, ip administered 45 mins prior testing measured after 60 mins; type: organism-based; conditions: in vivo, 1 h
[8] = system: Mus musculus; test: Antipsychotic activity in mouse assessed as inhibition of PCP-induced hyperactivity at 1 mg/kg, ip administered 45 mins prior testing measured after 60 mins; type: functional, organism-based
[9] = system: Mus musculus; test: Toxicity in ig dosed mouse assessed as induction of catalepsy by horizontal bar method; type: organism-based; conditions: in vivo, po
[10] = molecular target: T2, Alpha-1A adrenergic receptor (Homo sapiens, UniProt P35348); test: Antagonistic activity at alpha-1A adrenergic receptor (unknown origin) after 10 mins by FLIPR assay
T2 sequence (P35348 whole entry): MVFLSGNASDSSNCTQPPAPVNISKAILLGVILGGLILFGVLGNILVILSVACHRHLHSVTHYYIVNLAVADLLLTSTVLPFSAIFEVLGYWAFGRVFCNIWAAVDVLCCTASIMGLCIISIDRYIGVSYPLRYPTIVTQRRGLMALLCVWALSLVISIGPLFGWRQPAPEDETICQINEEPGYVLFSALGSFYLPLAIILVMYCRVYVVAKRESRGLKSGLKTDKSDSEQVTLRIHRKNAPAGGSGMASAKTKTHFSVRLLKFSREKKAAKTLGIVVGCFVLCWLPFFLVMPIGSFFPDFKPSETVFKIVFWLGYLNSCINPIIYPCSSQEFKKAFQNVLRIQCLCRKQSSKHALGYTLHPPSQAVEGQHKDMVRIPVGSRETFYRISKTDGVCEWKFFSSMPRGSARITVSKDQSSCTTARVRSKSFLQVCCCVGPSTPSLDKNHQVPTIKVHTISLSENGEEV

[11] = Metabolic stability in human liver microsomes assessed as compound loss at 2 uM measured after 30 mins in presence of NADPH by LC-MS/MS analysis; type: ADME; conditions: read-out: Drug degradation
[12] = molecular target: T3, 5-hydroxytryptamine receptor 2C (Homo sapiens, UniProt P28335); test: Antagonistic activity at 5-HT2c receptor (unknown origin) after 10 mins by FLIPR assay
T3 sequence (P28335 whole entry): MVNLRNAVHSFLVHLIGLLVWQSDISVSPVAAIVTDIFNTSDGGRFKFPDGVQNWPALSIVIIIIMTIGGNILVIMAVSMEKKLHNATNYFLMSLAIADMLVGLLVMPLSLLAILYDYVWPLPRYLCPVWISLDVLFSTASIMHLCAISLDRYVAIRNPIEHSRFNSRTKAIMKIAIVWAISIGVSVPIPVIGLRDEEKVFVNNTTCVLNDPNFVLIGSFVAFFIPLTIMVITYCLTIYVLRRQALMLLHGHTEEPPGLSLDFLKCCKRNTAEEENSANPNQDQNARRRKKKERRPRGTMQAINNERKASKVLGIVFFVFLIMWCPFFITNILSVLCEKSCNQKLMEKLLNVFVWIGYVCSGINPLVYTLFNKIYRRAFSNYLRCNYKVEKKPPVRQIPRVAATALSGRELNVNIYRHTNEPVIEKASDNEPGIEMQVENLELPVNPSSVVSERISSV

[13] = molecular target: Histamine H1 receptor (Homo sapiens, UniProt P35367); test: Antagonistic activity at histamine1 receptor (unknown origin) after 10 mins by FLIPR assay
Histamine H1 receptor, sequence (P35367 whole entry): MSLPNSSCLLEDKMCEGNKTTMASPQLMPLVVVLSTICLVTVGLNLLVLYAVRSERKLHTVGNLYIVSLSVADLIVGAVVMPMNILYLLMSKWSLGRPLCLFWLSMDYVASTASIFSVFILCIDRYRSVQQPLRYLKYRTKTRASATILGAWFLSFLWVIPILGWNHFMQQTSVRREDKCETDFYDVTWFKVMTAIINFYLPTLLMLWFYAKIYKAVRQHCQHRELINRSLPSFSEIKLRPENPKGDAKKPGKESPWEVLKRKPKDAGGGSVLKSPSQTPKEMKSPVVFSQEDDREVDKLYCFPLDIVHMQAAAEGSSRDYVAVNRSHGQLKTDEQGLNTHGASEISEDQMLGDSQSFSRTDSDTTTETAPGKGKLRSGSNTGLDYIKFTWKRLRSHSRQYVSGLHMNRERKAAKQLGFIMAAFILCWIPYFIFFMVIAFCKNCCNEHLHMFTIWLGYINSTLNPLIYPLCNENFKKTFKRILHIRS

[14] = in vivo; conditions: mouse, po
Description: Therapeutic index, ratio of ED50 for toxicity in orally dosed mouse by catalepsy test to ED50 for antipsychotic activity in mouse

[15] = molecular target: Voltage-gated inwardly rectifying potassium channel KCNH2 (Homo sapiens, UniProt Q12809)
Voltage-gated inwardly rectifying potassium channel KCNH2, sequence (Q12809 whole entry): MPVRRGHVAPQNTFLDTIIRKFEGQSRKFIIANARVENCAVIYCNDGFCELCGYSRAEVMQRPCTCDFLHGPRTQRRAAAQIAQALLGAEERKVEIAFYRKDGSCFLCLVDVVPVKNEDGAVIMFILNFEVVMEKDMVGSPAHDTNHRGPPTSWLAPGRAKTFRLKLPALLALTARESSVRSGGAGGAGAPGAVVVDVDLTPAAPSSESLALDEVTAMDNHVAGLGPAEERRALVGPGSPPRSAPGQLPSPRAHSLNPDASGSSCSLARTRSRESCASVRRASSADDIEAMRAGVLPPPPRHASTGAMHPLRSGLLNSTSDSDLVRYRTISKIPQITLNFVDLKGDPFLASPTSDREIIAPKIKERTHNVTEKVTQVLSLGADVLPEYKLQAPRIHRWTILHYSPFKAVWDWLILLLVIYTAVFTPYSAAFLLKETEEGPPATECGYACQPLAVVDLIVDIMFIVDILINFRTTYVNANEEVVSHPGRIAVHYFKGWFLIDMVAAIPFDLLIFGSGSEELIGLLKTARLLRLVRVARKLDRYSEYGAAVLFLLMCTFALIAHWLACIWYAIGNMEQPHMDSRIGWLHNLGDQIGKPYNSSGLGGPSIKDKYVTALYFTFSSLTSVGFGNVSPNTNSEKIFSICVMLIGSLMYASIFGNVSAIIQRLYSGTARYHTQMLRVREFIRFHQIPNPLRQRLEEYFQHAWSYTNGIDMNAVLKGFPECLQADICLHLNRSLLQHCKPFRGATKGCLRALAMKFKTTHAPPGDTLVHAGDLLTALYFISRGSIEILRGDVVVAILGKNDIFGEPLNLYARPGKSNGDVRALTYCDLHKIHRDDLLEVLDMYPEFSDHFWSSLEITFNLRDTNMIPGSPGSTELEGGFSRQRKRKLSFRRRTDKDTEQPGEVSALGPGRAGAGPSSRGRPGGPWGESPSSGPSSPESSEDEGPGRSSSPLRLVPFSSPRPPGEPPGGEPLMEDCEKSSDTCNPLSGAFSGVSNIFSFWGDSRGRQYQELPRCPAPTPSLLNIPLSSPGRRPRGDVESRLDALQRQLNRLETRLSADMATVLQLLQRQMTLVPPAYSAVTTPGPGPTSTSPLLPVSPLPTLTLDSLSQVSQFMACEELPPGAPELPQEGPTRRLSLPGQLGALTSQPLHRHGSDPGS
Description: Inhibition of human ERG after 10 mins

Compound	EC50 [1]	IC50 [2]	IC50 [3]	further results
CNC(=O)c1cc(OCCCCN2CCN(c3cccc(Cl)c3Cl)CC2)ccc1F	7.2 nM	39.4 nM	360 nM	–
CNC(=O)c1cc(F)cc(OCCCCN2CCN(c3cccc(Cl)c3Cl)CC2)c1	361 nM	1580 nM	1320 nM	–
CNC(=O)c1cc(C)cc(OCCCCN2CCN(c3cccc(Cl)c3Cl)CC2)c1	97.2 nM	89.8 nM	1400 nM	–
CNC(=O)c1cccc(OCCCCN2CCN(c3cccc(Cl)c3Cl)CC2)c1F	301 nM	171 nM	30.3 nM	–
CNC(=O)c1cc(OCCCCN2CCN(c3cccc(Cl)c3Cl)CC2)ccc1Cl	34.4 nM	34.9 nM	340 nM	–
CNC(=O)c1cc(OCCCCN2CCN(c3cccc(Cl)c3Cl)CC2)cc(C(C)=O)c1	137 nM	37.7 nM	494 nM	–
CCNC(=O)c1cccc(OCCCCN2CCN(c3cccc(Cl)c3Cl)CC2)c1	101 nM	116 nM	670 nM	–
CNC(=O)c1ccc(Cl)c(OCCCCN2CCN(c3cccc(Cl)c3Cl)CC2)c1	> 10000 nM	58.5 nM	1380 nM	–
CCCCCNC(=O)c1cccc(OCCCCN2CCN(c3cccc(Cl)c3Cl)CC2)c1	464 nM	16.8 nM	1100 nM	–
CNC(=O)c1ccccc1OCCCCN1CCN(c2cccc(Cl)c2Cl)CC1	309 nM	167 nM	2200 nM	–
CNC(=O)c1cc(OCCCCN2CCC(c3noc4cc(F)ccc34)CC2)ccc1F	13 nM	23 nM	15 nM	Activity [4]: Non-toxic; inhibition [5]: Active; inhibition [6]: Dose-dependent effect; ED50 [6]: 0.11 mg/kg; Activity [7]: Toxic; inhibition [8]: Active; ED50 [9]: 7.04 mg/kg; IC50 [10]: 120 nM; metabolised at 0.5 h, 2 µM [11]: 14%; IC50 [12]: 270 nM; IC50 [13]: 972 nM
CNC(=O)c1cccc(OCCCCN2CCN(c3cccc(Cl)c3Cl)CC2)c1C	122 nM	3600 nM	860 nM	–
CNC(=O)c1cccc(OCCCCN2CCN(c3cccc(Cl)c3Cl)CC2)c1	24 nM	32 nM	1100 nM	–
CNC(=O)c1cccc(OCCCCN2CCN(c3cccc4c3OC(F)(F)O4)CC2)c1	12 nM	4.1 nM	> 10000 nM	–
CNC(=O)c1cccc(OCCCCN2CCN(c3cccc4sccc34)CC2)c1	5.1 nM	91 nM	216 nM	–
Cc1nc2n(c(=O)c1CCN1CCC(c3noc4cc(F)ccc34)CC1)CCCC2 [RISPERIDONE]	–	–	–	ED50 [9]: 0.3 mg/kg
CC(=O)Nc1cccc(OCCCCN2CCN(c3cccc(Cl)c3Cl)CC2)c1	> 100 nM	98.4 nM	1050 nM	–
CNC(=O)c1cccc(OCCCCN2CCN(c3nsc4ccccc34)CC2)c1	4.3 nM	10 nM	180 nM	–
CNC(=O)c1cc(OCCCCN2CCN(c3cccc(Cl)c3Cl)CC2)ccc1C	74 nM	9.8 nM	460 nM	–
CNC(=O)c1cccc(OCCCCN2CCN(c3cccc(Cl)c3Cl)CC2)c1OC	120 nM	202 nM	720 nM	–
CNC(=O)c1cccc(OCCCCN2CCC(c3noc4cc(F)ccc34)CC2)c1	13 nM	8.5 nM	46 nM	Activity [4]: Non-toxic; inhibition [5]: Active; inhibition [6]: Dose-dependent effect; ED50 [6]: 0.06 mg/kg; selectivity ratio [14]: 113; Activity [7]: Toxic; inhibition [8]: Active; ED50 [9]: 6.76 mg/kg; IC50 [10]: 35 nM; metabolised at 0.5 h, 2 µM [11]: 3%; IC50 [15]: 1030 nM; IC50 [12]: 190 nM; IC50 [13]: 2560 nM
CNC(=O)c1cc(OCCCCN2CCN(c3cccc4sccc34)CC2)ccc1F	6 nM	43 nM	80 nM	inhibition [5]: inactive; metabolised at 0.5 h, 2 µM [11]: 51%
CNC(=O)c1cc(OCCCCN2CCN(c3cccc4c3OC(F)(F)O4)CC2)ccc1F	8.2 nM	30 nM	1900 nM	–
CNC(=O)c1ccc(OC)c(OCCCCN2CCN(c3cccc(Cl)c3Cl)CC2)c1	26 nM	12 nM	840 nM	–
NC(=O)c1cccc(OCCCCN2CCN(c3cccc(Cl)c3Cl)CC2)c1	26 nM	–	1100 nM	–
CNC(=O)c1ccc(OCCCCN2CCN(c3cccc(Cl)c3Cl)CC2)cc1	122 nM	70 nM	820 nM	–
CNC(=O)c1cc(OCCCCN2CCN(c3nsc4ccccc34)CC2)ccc1F	2.7 nM	12 nM	35 nM	inhibition [5]: inactive; metabolised at 0.5 h, 2 µM [11]: 47%
